From patent publication US20240366598A1, “GLUCOSE-DEPENDENT INSULINOTROPIC POLYPEPTIDE RECEPTOR ANTAGONISTS AND USES THEREOF” (Pfizer Inc., priority 2023, published 2024)
pIC50: −log10 of the molar value.

Biological target: T1, human Glucose-dependent Insulinotropic Polypeptide Receptor (hGIPR) (Homo sapiens, UniProt P48546)
T1 sequence (P48546 22-466): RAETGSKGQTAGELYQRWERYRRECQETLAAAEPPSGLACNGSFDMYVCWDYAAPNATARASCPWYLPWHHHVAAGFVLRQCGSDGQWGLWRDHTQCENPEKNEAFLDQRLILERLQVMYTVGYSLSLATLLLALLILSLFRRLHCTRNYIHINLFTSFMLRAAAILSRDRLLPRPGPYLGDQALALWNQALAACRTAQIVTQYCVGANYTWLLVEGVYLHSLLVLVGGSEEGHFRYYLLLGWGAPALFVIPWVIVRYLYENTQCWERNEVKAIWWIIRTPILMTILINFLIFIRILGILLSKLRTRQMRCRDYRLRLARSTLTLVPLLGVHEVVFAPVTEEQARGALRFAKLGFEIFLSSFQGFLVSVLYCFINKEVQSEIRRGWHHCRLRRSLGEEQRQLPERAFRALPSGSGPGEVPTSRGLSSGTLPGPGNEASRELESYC
Experiment: Functional in vitro GIPR antagonist potency assay (cAMP HTRF, CHO-K1 cells stably expressing hGIPR, hGIP stimulation at about EC80)
Assay type: cell-based
Settings: geometric mean, hGIP at estimated EC80, examples marked ^2: overall geometric mean of multiple forms (including salts) tested
In short: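 HTRF quantification of cAMP after stimulation with hGIP at an estimated EC80 for 30 min at 37 °C. Before stimulation, hGIPR-expressing CHO-K1 cells were exposed 2 h to test compound in IBMX-containing buffer, with 0.5% DMSO final. Percent effect is referenced to agonist alone (0%) and to 80 μM of a reference antagonist (100%), and runs required the agonist concentration to fall within the on-the-day EC50–EC90.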

| SMILES | pIC50 |
| --- | --- |
| Cc1cc(NC(=O)N2CCC[C@@H]2C(=O)Nc2ccc(-c3cccc(C(=O)O)c3)cn2)ccc1C(F)(F)F [Example 175, 3-{6-[(1-{[3-methyl-4-(trifluoromethyl)phenyl]carbamoyl}-D-prolyl)amino]pyridin-3-yl}benzoic acid] | 8.08 |
| C[C@H](NC(=O)N1CCC[C@@H]1C(=O)Nc1ccc(-c2ccc(C(=O)O)cc2)cc1)c1ccc(C(F)(F)F)cc1 [Example 164, 4′-{[1-({(1S)-1-[4-(trifluoromethyl)phenyl]ethyl}carbamoyl)-D-prolyl]amino}[1,1′-biphenyl]-4-carboxylic acid] | 7.66 |
| CC(C)c1ccc(NC(=O)N2CCC[C@@H]2C(=O)Nc2ccc(-c3ccc(C(=O)O)cc3)cc2)cc1 (racemic) [Example 44, 4′-[(1-{[4-(propan-2-yl)phenyl]carbamoyl}prolyl)amino][1,1′-biphenyl]-4-carboxylic acid] | 8.17 |
| Cc1cc(NC(=O)N2CCC[C@@H]2C(=O)Nc2ccc(-c3ccc(C(=O)O)nc3)cc2)ccc1C1CC1 [Example 174, 5-[4-({1-[(4-cyclopropyl-3-methylphenyl)carbamoyl]-D-prolyl}amino)phenyl]pyridine-2-carboxylic acid] | 7.31 |
| Cc1cc(NC(=O)[C@H]2CCCN2C(=O)Nc2ccc(C3CCC3)cc2)cnc1-c1ccc(C(=O)O)cc1 [Example 160, 4-[5-({1-[(4-cyclobutylphenyl)carbamoyl]-D-prolyl}amino)-3-methylpyridin-2-yl]benzoic acid] | 7.12 |
| Cc1cc(NC(=O)N2CCC[C@@H]2C(=O)Nc2ccc(-c3ccc(C(=O)O)c(F)c3)cn2)ccc1C(C)C [Example 187, 2-fluoro-4-{6-[(1-{[3-methyl-4-(propan-2-yl)phenyl]carbamoyl}-D-prolyl)amino]pyridin-3-yl}benzoic acid] | 7.29 |
| CC(C)c1ccc(NC(=O)N2CCC[C@@H]2C(=O)Nc2ccc(-c3ccc(O)cc3F)cc2)cc1 [Example 51, (2R)-N^2-(2′-fluoro-4′-hydroxy[1,1′-biphenyl]-4-yl)-N^1-[4-(propan-2-yl)phenyl]pyrrolidine-1,2-dicarboxamide] | 6.55 |
| O=C(O)c1ccc(-c2ccc(NC(=O)[C@H]3CCCN3C(=O)Nc3ccc(C(F)(F)F)cc3)cn2)cc1 [Example 22, 4-{5-[(1-{[4-(Trifluoromethyl)phenyl]carbamoyl}-D-prolyl)amino]pyridin-2-yl}benzoic acid] | 7.21 |
| CCc1ccc(NC(=O)N2CCC[C@@H]2C(=O)Nc2ccc(-c3ccc(C(=O)O)cc3)cc2)cc1 [Example 118, 4′-({1-[(4-ethylphenyl)carbamoyl]-D-prolyl}amino)[1,1′-biphenyl]-4-carboxylic acid] | 7.82 |
| CC(C)c1ccc(NC(=O)N2CCC[C@@H]2C(=O)Nc2ccc(-c3ccc(C(=O)O)cc3)cc2)nc1 [Example 61, 4′-[(1-{[5-(propan-2-yl)pyridin-2-yl]carbamoyl}-D-prolyl)amino][1,1′-biphenyl]-4-carboxylic acid] | 6.82 |
| Cc1cc(C(=O)O)ncc1-c1ccc(NC(=O)[C@H]2CCCN2C(=O)Nc2ccc(C(C)C)cc2)cc1 [Example 57, 4-methyl-5-{4-[(1-{[4-(propan-2-yl)phenyl]carbamoyl}-D-prolyl)amino]phenyl}pyridine-2-carboxylic acid] | 7.19 |
| CC(C)c1ccc([C@H](C)NC(=O)N2CCC[C@@H]2C(=O)Nc2ccc(-c3ccc(C(=O)O)cc3)cc2)cc1 [Example 37, 4′-{[1-({(1S)-1-[4-(Propan-2-yl)phenyl]ethyl}carbamoyl)-D-prolyl]amino}[1,1′-biphenyl]-4-carboxylic acid] | 7.24 |
| COc1cc(-c2ccc(NC(=O)[C@H]3CCCN3C(=O)Nc3ccc(C(C)C)c(F)c3)cc2)ccc1C(=O)O [Example 32, 4′-[(1-{[3-Fluoro-4-(propan-2-yl)phenyl]carbamoyl}-D-prolyl)amino]-3-methoxy[1,1′-biphenyl]-4-carboxylic acid] | 8.21 |
| O=C(O)c1ccc(-c2ccc(NC(=O)[C@H]3CCCN3C(=O)NCc3ccc(Cl)c(Cl)c3)cc2)cc1 [Example 116, 4′-[(1-{[(3,4-dichlorophenyl)methyl]carbamoyl}-D-prolyl)amino][1,1′-biphenyl]-4-carboxylic acid] | 7.92 |
| O=C(O)c1ccc(-c2ccc(NC(=O)[C@H]3CCCN3C(=O)Nc3ccc(Cl)c(Cl)c3)cc2)cc1 [Example 73, 4′-({1-[(3,4-dichlorophenyl)carbamoyl]-D-prolyl}amino)[1,1′-biphenyl]-4-carboxylic acid] | 7.92 |
| O=C(O)c1cccc(-c2ccc(NC(=O)[C@H]3CCCN3C(=O)Nc3ccc(Cl)c(C(F)(F)F)c3)nc2)c1 [Example 188, 3-{6-[(1-{[4-chloro-3-(trifluoromethyl)phenyl]carbamoyl}-D-prolyl)amino]pyridin-3-yl}benzoic acid] | 7.49 |
| CC(C)c1ccc(NC(=O)N2CCC[C@@H]2C(=O)Nc2cnc(-c3ccc(C(=O)O)cc3)cn2)cc1 [Example 121, 4-{5-[(1-{[4-(propan-2-yl)phenyl]carbamoyl}-D-prolyl)amino]pyrazin-2-yl}benzoic acid] | 7.57 |
| O=C(O)c1ccc(-c2ccc(NC(=O)[C@H]3CCCN3C(=O)Nc3ccc(C(F)(F)F)c(Cl)c3)cc2)cn1 [Example 55, 5-{4-[(1-{[3-chloro-4-(trifluoromethyl)phenyl]carbamoyl}-D-prolyl)amino]phenyl}pyridine-2-carboxylic acid] | 8.12 |
| CC(C)c1ccc(CNC(=O)N2CCC[C@@H]2C(=O)Nc2ccc(-c3ccc(C(=O)O)cc3)cc2)cc1 [Example 109, 4′-{[1-{{[4-(propan-2-yl)phenyl]methyl}carbamoyl)-D-prolyl]amino}[1,1′-biphenyl]-4-carboxylic acid] | 8.29 |
| O=C(O)c1ccc(-c2ncc(NC(=O)[C@H]3CCCN3C(=O)Nc3ccc(C(F)(F)F)cc3)cc2F)cc1 [Example 193, 4-{3-fluoro-5-[(1-{[4-(trifluoromethyl)phenyl]carbamoyl}-D-prolyl)amino]pyridin-2-yl}benzoic acid] | 7.77 |
| CC(C)c1ccc(NC(=O)N2CCC[C@@H]2C(=O)Nc2ncc(-c3ccc(C(=O)O)cc3)cc2F)cc1 [Example 25, 4-{5-Fluoro-6-[(1-{[4-(propan-2-yl)phenyl]carbamoyl}-D-prolyl)amino]pyridin-3-yl}benzoic acid] | 7.07 |
| O=C(O)c1ccc(-c2ccc(NC(=O)[C@H]3CCCN3C(=O)Nc3ccc(C(F)(F)F)nc3)cc2)cc1 [Example 72, 4′-[(1-{[6-(trifluoromethyl)pyridin-3-yl]carbamoyl}-D-prolyl)amino][1,1′-biphenyl]-4-carboxylic acid] | 7.16 |
| O=C(O)c1ccc(-c2ccc(NC(=O)[C@H]3CCCN3C(=O)Nc3ccc(C4CC4)cc3)cc2)cn1 [Example 122, 5-[4-({1-[(4-cyclopropylphenyl)carbamoyl]-D-prolyl}amino)phenyl]pyridine-2-carboxylic acid] | 7.00 |
| CC(C)c1ccc(NC(=O)N2CCC[C@@H]2C(=O)Nc2ccc3cc(C(=O)O)ccc3c2)cc1F [Example 152, 6-[(1-{[3-fluoro-4-(propan-2-yl)phenyl]carbamoyl}-D-prolyl)amino]naphthalene-2-carboxylic acid] | 7.36 |
| CC(C)c1ccc(CNC(=O)N2CCC[C@@H]2C(=O)Nc2ccc(-c3cccc(C(=O)O)c3)cn2)cc1 [Example 224, 3-(6-{[1-{{[4-(propan-2-yl)phenyl]methyl}carbamoyl)-D-prolyl]amino}pyridin-3-yl) benzoic acid] | 7.10 |
